Assay results from patent US20260200928A1, “THERAPEUTIC COMPOUNDS” (Sanofi, priority 2022, published 2026).

Biological target: T1, human IL-17A (Homo sapiens, UniProt Q16552)
T1 construct: purchased R&D Systems 7955-IL/CF
T1 sequence (Q16552 24-155): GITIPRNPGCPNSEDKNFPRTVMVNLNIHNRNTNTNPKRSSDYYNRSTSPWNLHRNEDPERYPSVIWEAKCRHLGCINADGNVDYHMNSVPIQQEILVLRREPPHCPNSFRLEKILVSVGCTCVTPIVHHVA
Assay: IL-17A AlphaLISA competition assay (block of IL-17A binding to its receptor IL-17RA)
Details: mean IC50 (n≥2), block of IL-17A binding to IL-17RA
In short: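 Human recombinant IL-17A (7.5 nM stock) pre-incubated 30 min at RT with compound, then IL-17RA/Fc (5 nM stock) added for 90 min; AlphaLISA read with anti-Fc acceptor beads, biotinylated anti-IL-17A antibody (5 nM) and streptavidin donor beads (3 h, dark). IC50 from 4-parameter logistic fit, normalised to DMSO and 4 μM reference inhibitor; n≥2.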

IC50 [nM] | SMILES
69 | COCC(c1ccnc(NC(=O)[C@@H](NC(=O)c2nonc2C2CC2)C2CCC(F)(F)CC2)c1)[C@H]1C[C@@H](C(F)(F)F)NC1=O (single isomer, unassigned) [Example 186, 4-Cyclopropyl-N-((1S)-1-(4,4-difluorocyclohexyl)-2-((4-((R or S)-2-methoxy-1-((3R,5S)-2-oxo-5-(trifluoromethyl)pyrrolidin-3-yl)ethyl)pyridin-2-yl)amino)-2-oxoethyl)-1,2,5-oxadiazole-3-carboxamide]
70 | COC[C@H](c1ccnc(NC(=O)[C@@H](NC(=O)c2ccnn2C)C2CCC(F)(F)CC2)c1)N1C[C@@H](C(F)(F)F)NC1=O [Example 202, N-((S)-1-(4,4-difluorocyclohexyl)-2-((4-((S)-2-methoxy-1-((S)-2-oxo-4-(trifluoromethyl)imidazolidin-1-yl)ethyl)pyridin-2-yl)amino)-2-oxoethyl)-1-methyl-1H-pyrazole-5-carboxamide]
47 | CCc1nocc1C(=O)N[C@H](C(=O)Nc1cc([C@@H](COC)N2C[C@@H](C(F)(F)F)NC2=O)ccn1)C1CCC(F)(F)CC1 [Example 198, N-((S)-1-(4,4-difluorocyclohexyl)-2-((4-((S)-2-methoxy-1-((S)-2-oxo-4-(trifluoromethyl)imidazolidin-1-yl)ethyl)pyridin-2-yl)amino)-2-oxoethyl)-3-ethylisoxazole-4-carboxamide]
12000 | COC[C@H](c1ccnc(NC(=O)C(NC(=O)c2nonc2C2CC2)C2CCC(F)CC2)c1)N1C[C@@H](C(F)(F)F)NC1=O (single isomer, unassigned) [Example 279]
1170 | Cn1nccc1C(=O)NC(C(=O)Nc1cc(C(C)(C)N2C[C@@H](C(F)(F)F)NC2=O)ccn1)C1CCC(F)(F)CC1 (stereo in doubt) [Example 172, N—((S)-1-(4,4-difluorocyclohexyl)-2-oxo-2-((4-(2-((S)-2-oxo-4-(trifluoro-methyl)imidazolidin-1-yl)propan-2-yl)pyridin-2-yl)amino)ethyl)-1-methyl-1H-pyrazole-5-carboxamide]
23 | CCc1nonc1C(=O)N[C@H](C(=O)Nc1cc([C@@H](CC)N2C[C@@H](C(F)(F)F)NC2=O)ccn1)C1CCC(F)(F)CC1 [Example 209, N-((S)-1-(4,4-difluorocyclohexyl)-2-oxo-2-((4-((R)-1-((S)-2-oxo-4-(trifluoromethyl)imidazolidin-1-yl)propyl)pyridin-2-yl)amino)ethyl)-4-ethyl-1,2,5-oxadiazole-3-carboxamide]
13 | CCc1nocc1C(=O)N[C@H](C(=O)Nc1cc(C(COC)N2C[C@@H](C(F)(F)F)NC2=O)ccn1)[C@H]1CC[C@H](C)CC1 (single isomer, unassigned) [Example 125]
90 | COC[C@H](c1ccnc(NC(=O)[C@@H](NC(=O)c2nonc2C)C2CCC(Cl)CC2)c1)N1C[C@@H](C(F)(F)F)NC1=O (stereo partly drawn) [Example 315, N-((1S)-1-(4-chlorocyclohexyl)-2-((4-((S)-2-methoxy-1-((S)-2-oxo-4-(trifluoromethyl)imidazolidin-1-yl)ethyl)pyridin-2-yl)amino)-2-oxoethyl)-4-methyl-1,2,5-oxadiazole-3-carboxamide]
53 | CCc1nocc1C(=O)N[C@H](C(=O)Nc1cc([C@@H](COC)N2CC(F)(F)CNC2=O)ccn1)C1CCC(F)(F)CC1 [Example 178, N-((S)-2-((4-((S)-1-(5,5-difluoro-2-oxotetrahydropyrimidin-1(2H)-yl)-2-methoxyethyl)pyridin-2-yl)amino)-1-(4,4-difluorocyclohexyl)-2-oxoethyl)-3-ethylisoxazole-4-carboxamide]
51 | CCc1nocc1C(=O)N[C@H](C(=O)Nc1cc([C@@H](COC)N2C[C@@H](C(F)(F)F)NC2=O)ccn1)[C@H]1CCCC(F)(F)C1 (single isomer, unassigned) [Example 307]
49 | COCC(c1ccnc(NC(=O)C(NC(=O)C(F)(F)c2ccc(OC)nc2)C2CCC(C)CC2)c1)N1CC(C(F)(F)F)NC1=O (single isomer, unassigned) [Example 252]
106 | COCC(c1ccnc(NC(=O)C(NC(=O)Cc2cc(C)on2)C2CCC(C)CC2)c1)N1CC(C(F)(F)F)NC1=O (single isomer, unassigned) [Example 253]
72 | COCC(NC(=O)CCC(F)(F)F)c1ccnc(NC(=O)C(NC(=O)c2ccnn2C(C)C)C2CCC(C)CC2)c1 [Example 246, 1-isopropyl-N-((1S)-2-((4-(2-methoxy-1-(4,4,4-trifluorobutanamido)ethyl)pyridin-2-yl)amino)-1-((1r,4S)-4-methylcyclohexyl)-2-oxoethyl)-1H-pyrazole-5-carboxamide]
26 | Cn1nccc1C(=O)N[C@H](C(=O)Nc1cc(C(NC(=O)CCC(F)(F)F)C2CC2)ccn1)[C@H]1CC[C@H](C)CC1 (stereo partly drawn) [Example 236, N-((1S)-2-((4-(cyclopropyl(4,4,4-trifluorobutanamido)methyl)pyridin-2-yl)amino)-1-((1r,4S)-4-methylcyclohexyl)-2-oxoethyl)-1-methyl-1H-pyrazole-5-carboxamide]
157 | Cc1nonc1C(=O)N[C@H](C(=O)Nc1cc(C[C@H]2C[C@@H](C(F)(F)F)NC2=O)ccn1)C1CCC(F)(F)CC1 [Example 221, N-((S)-1-(4,4-difluorocyclohexyl)-2-oxo-2-((4-(((3S,5S)-2-oxo-5-(trifluoromethyl)pyrrolidin-3-yl)methyl)pyridin-2-yl)amino)ethyl)-4-methyl-1,2,5-oxadiazole-3-carboxamide]
4490 | COC[C@H](c1ccnc(NC(=O)C(NC(=O)c2nonc2C2CC2)C2CCC(C)(F)CC2)c1)N1C[C@@H](C(F)(F)F)NC1=O (single isomer, unassigned) [Example 296]
62 | COC[C@H](c1ccnc(NC(=O)[C@@H](NC(=O)c2ccnn2C)C(C2CC2)C2CC2)c1)N1C[C@@H](C(F)(F)F)NC1=O [Example 228, N-((S)-1,1-dicyclopropyl-3-((4-((S)-2-methoxy-1-((S)-2-oxo-4-(trifluoromethyl)imidazolidin-1-yl)ethyl)pyridin-2-yl)amino)-3-oxopropan-2-yl)-1-methyl-1H-pyrazole-5-carboxamide]
273 | O=C(N[C@H](C(=O)Nc1cc(CN2C[C@@H](C(F)(F)F)NC2=O)ccn1)C1CCC(F)(F)CC1)OCc1ccccc1 (stereo in doubt) [Example 10, Benzyl ((S)-1-(4,4-difluorocyclohexyl)-2-oxo-2-((4-(((S)-2-oxo-4-(trifluoromethyl)imidazolidin-1-yl)methyl)pyridin-2-yl)amino)ethyl)carbamate]
65 | COCC(c1ccnc(NC(=O)[C@@H](NC(=O)Cc2cc(C)no2)[C@H]2CC[C@H](C)CC2)c1)N1C[C@@H](C(F)(F)F)NC1=O (single isomer, unassigned) [Example 123]
23 | COCC(c1ccnc(NC(=O)[C@@H](NC(=O)c2nocc2C2CC2)[C@H]2CC[C@H](C)CC2)c1)N1C[C@@H](C(F)(F)F)NC1=O (single isomer, unassigned) [Example 121]
201 | Cn1nccc1C(=O)N[C@H](C(=O)Nc1cc(CN2C[C@@H](C(F)(F)F)NC2=O)ccn1)C(C1CC1)C1CC1 [Example 15, N-((S)-1,1-dicyclopropyl-3-oxo-3-((4-(((S)-2-oxo-4-(trifluoromethyl)imidazolidin-1-yl)methyl)pyridin-2-yl)amino)propan-2-yl)-1-methyl-1H-pyrazole-5-carboxamide]
15 | CCc1nonc1C(=O)N[C@@H](COC(C)(C)C(F)(F)F)C(=O)Nc1cc([C@@H](COC)N2C[C@@H](C(F)(F)F)NC2=O)ccn1 [Example 266, 4-ethyl-N-((S)-1-((4-((S)-2-methoxy-1-((S)-2-oxo-4-(trifluoromethyl)imidazolidin-1-yl)ethyl)pyridin-2-yl)amino)-1-oxo-3-((1,1,1-trifluoro-2-methylpropan-2-yl)oxy)propan-2-yl)-1,2,5-oxadiazole-3-carboxamide]
42 | COC[C@H](c1ccnc(NC(=O)[C@@H](NC(=O)c2nonc2C)C(C2CC2)C2CC2)c1)N1C[C@@H](C(F)(F)F)NC1=O [Example 226, N—((S)-1,1-Dicyclopropyl-3-((4-((S)-2-methoxy-1-((S)-2-oxo-4-(trifluoro-methyl)imidazolidin-1-yl)ethyl)pyridin-2-yl)amino)-3-oxopropan-2-yl)-4-methyl-1,2,5-oxadiazole-3-carboxamide]
23 | CC[C@H](c1ccnc(NC(=O)[C@@H](NC(=O)c2nonc2C2CC2)C2CCC(F)(F)CC2)c1)N1C[C@@H](C(F)(F)F)NC1=O [Example 212, 4-cyclopropyl-N-((S)-1-(4,4-difluorocyclohexyl)-2-oxo-2-((4-((R)-1-((S)-2-oxo-4-(trifluoromethyl)imidazolidin-1-yl)propyl)pyridin-2-yl)amino)ethyl)-1,2,5-oxadiazole-3-carboxamide]

SMILES | IC50 [nM]
CC(C)(C)OCC(NC(=O)c1nonc1C1CC1)C(=O)Nc1cc(CN2C[C@@H](C(F)(F)F)NC2=O)ccn1 (stereo partly drawn) [Example 82, N-(3-(tert-butoxy)-1-oxo-1-((4-(((S)-2-oxo-4-(trifluoromethyl)imidazolidin-1-yl)methyl)pyridin-2-yl)amino)propan-2-yl)-4-cyclopropyl-1,2,5-oxadiazole-3-carboxamide] | 1170
Cn1nccc1C(=O)NC(COC(C)(C)C)C(=O)Nc1cc(CN2C[C@@H](C(F)(F)F)NC2=O)ccn1 (stereo partly drawn) [Example 83, N-(3-(tert-butoxy)-1-oxo-1-((4-(((S)-2-oxo-4-(trifluoromethyl)imidazolidin-1-yl)methyl)pyridin-2-yl)amino)propan-2-yl)-1-methyl-1H-pyrazole-5-carboxamide] | 7110
